Key:
[1] = Mouse pharmacokinetic study, plasma and brain; format: in vivo, male Swiss Albino mice; settings: mice
human D1 [2] = molecular target: T1, human D1 (Homo sapiens, UniProt P21728); experiment: D1R GS-mediated GS-cAMP accumulation assay; settings: D1R GloSensor assay
human D1 [3] = molecular target: T1, human D1; experiment: BRET β-arrestin2 recruitment assay; settings: D1R BRET assay
MOR [4] = molecular target: T2, MOR (Homo sapiens, UniProt P35372); settings: in vitro; cited from earlier work
T2 sequence (P35372 whole entry): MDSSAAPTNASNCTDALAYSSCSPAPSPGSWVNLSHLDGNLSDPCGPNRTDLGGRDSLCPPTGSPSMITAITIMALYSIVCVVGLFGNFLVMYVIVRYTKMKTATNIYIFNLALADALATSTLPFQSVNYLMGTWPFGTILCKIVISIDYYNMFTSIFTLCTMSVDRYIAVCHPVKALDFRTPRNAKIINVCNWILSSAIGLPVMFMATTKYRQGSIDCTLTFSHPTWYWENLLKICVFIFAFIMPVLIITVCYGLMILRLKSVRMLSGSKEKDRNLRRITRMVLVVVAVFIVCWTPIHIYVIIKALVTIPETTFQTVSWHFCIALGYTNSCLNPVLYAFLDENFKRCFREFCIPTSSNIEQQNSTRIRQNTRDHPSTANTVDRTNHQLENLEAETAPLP

MOR [5] = molecular target: T2, MOR; settings: in vitro; cited from earlier work; remark: listed apart in the source
[6] = 50 mg/kg intraperitoneal injection

T1 sequence (P21728 whole entry): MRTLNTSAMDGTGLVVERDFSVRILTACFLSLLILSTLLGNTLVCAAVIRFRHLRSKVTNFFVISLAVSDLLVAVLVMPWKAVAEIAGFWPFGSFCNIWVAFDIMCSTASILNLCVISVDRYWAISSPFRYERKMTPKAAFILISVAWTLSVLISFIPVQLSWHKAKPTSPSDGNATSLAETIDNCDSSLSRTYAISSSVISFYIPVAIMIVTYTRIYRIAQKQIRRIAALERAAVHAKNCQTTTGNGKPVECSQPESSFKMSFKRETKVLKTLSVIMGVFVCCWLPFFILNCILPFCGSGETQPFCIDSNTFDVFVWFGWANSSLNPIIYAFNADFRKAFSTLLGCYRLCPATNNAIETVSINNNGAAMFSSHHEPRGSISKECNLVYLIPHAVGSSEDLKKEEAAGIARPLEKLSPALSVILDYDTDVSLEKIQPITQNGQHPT

In the case of Nc1cc(Oc2nccc3occc23)ccc1-c1cccc2nccn12 [Compound 40, 5-(Furo[3,2-c]pyridin-4-yloxy)-2-(imidazo[1,2-a]pyridin-5-yl)-aniline], the “tolerability / clinical signs” value ([1]; 50 mg/kg intraperitoneal) is reported as “well tolerated and no clinical signs were observed”, the “peak concentration in the brain” value [1, 6] is reported as “approximately 100 μM” and the “peak concentration in the plasma” value [1, 6] is reported as “approximately 100 μM”.
For FC(F)(F)c1cc(Oc2cc(N3CCCCC3)ccn2)ccc1-c1cccc2nccn12 [Compound 50, 5-(4-((4-(Piperidin-1-yl)pyridin-2-yl)oxy)-2-(trifluoromethyl)-phenyl)imidazo[1,2-a]pyridine], the “GS-cAMP accumulation activity in words” value (human D1 [2]) was “inactive in both the GS and β-arrestin2 pathways” and the “β-arrestin2 recruitment activity in words” value (human D1 [3]) was “inactive in both the GS and β-arrestin2 pathways”.
In the case of COc1ccsc1CNCC[C@@]1(c2ccccn2)CCOC2(CCCC2)C1 [TRV130], the “EMAX, recruiting β-arrestin” value (MOR [4]) is given as 15% and the “EMAX, activation of G protein signaling” value (MOR [5]) is given as 84%.
